Key:
Type in all cases: cell-based
[1] = system: MOLT-4; assay: NCI screen, growth of human tumor cells: Leukemia MOLT-4; conditions: MOLT-4 (Leukemia), 10^−4 molar
Procedure, shortened: (§1)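 The NCI screen tests each compound on human cancer cell lines and reports percent growth. Concentrations are given in molar units; the number of data points per compound is sixty at minimum.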

[2] = system: RPMI-8226; assay: NCI screen, growth of human tumor cells: Leukemia RPMI-8226; conditions: RPMI-8226 (Leukemia), 10^−4 molar
Procedure, shortened: as §1

[3] = system: EKVX; assay: NCI screen, growth of human tumor cells: Non-Small Cell Lung EKVX; conditions: EKVX, 10^−4 molar
Procedure, shortened: as §1

[4] = system: HOP-62; assay: NCI screen, growth of human tumor cells: Non-Small Cell Lung HOP-62; conditions: HOP-62 (Non-Small Cell Lung), 10^−4 molar
Procedure, shortened: as §1

[5] = system: NCI-H226; assay: NCI screen, growth of human tumor cells: Non-Small Cell Lung NCI-H226; conditions: NCI-H226 (Non-Small Cell Lung), 10^−4 molar
Procedure, shortened: as §1

[6] = system: NCI-H522; assay: NCI screen, growth of human tumor cells: Non-Small Cell Lung NCI-H522; conditions: NCI-H522, 10^−4 molar
Procedure, shortened: as §1

[7] = system: NCI-H460; assay: NCI screen, growth of human tumor cells: Non-Small Cell Lung NCI-H460; conditions: NCI-H460 (Non-Small Cell Lung), 10^−4 molar
Procedure, shortened: as §1

[8] = system: NCI-H322M; assay: NCI screen, growth of human tumor cells: Non-Small Cell Lung NCI-H322M; conditions: NCI-H322M (Non-Small Cell Lung), 10^−4 molar
Procedure, shortened: as §1

[9] = system: NCI-H23; assay: NCI screen, growth of human tumor cells: Non-Small Cell Lung NCI-H23; conditions: NCI-H23, 10^−4 molar
Procedure, shortened: as §1

[10] = system: HCC-2998; assay: NCI screen, growth of human tumor cells: HCC-2998 (listed under Non-Small Cell Lung); conditions: HCC-2998, 10^−4 molar
Procedure, shortened: as §1

[11] = system: HCT-116; assay: NCI screen, growth of human tumor cells: Colon Cancer HCT-116; conditions: HCT-116 (Colon Cancer), 10^−4 molar
Procedure, shortened: as §1

[12] = system: HCT-15; assay: NCI screen, growth of human tumor cells: Colon Cancer HCT-15; conditions: HCT-15 (Colon Cancer), 10^−4 molar
Procedure, shortened: as §1

[13] = system: HT29; assay: NCI screen, growth of human tumor cells: Colon Cancer HT29; conditions: HT29 (Colon Cancer), 10^−4 molar
Procedure, shortened: as §1

[14] = system: SW620; assay: NCI screen, growth of human tumor cells: Colon Cancer SW620; conditions: SW620 (Colon Cancer), 10^−4 molar
Method: (§2) In the NCI screening process, each compound was tested and described by a minimum of 60 data points. The test data include, but are not limited to the type of cancer, the molar concentration used in the screen, and the percent growth of the cancer. In some cases, NMR and elemental analysis were used for structural assignment.

[15] = system: SF-268; assay: NCI screen, growth of human tumor cells: CNS Cancer SF-268; conditions: SF-268 (CNS Cancer), 10^−4 molar
Procedure, shortened: as §1

[16] = system: SNB-19; assay: NCI screen, growth of human tumor cells: CNS Cancer SNB-19; conditions: SNB-19 (CNS Cancer), 10^−4 molar
Procedure, shortened: as §1

[17] = system: SF-539; assay: NCI screen, growth of human tumor cells: CNS Cancer SF-539; conditions: SF-539 (CNS Cancer), 10^−4 molar
Procedure, shortened: as §1

[18] = system: U-251; assay: NCI screen, growth of human tumor cells: CNS Cancer U-251; conditions: U-251 (CNS Cancer), 10^−4 molar
Procedure, shortened: as §1

[19] = system: LOXIMVI; assay: NCI screen, growth of human tumor cells: Melanoma LOXIMVI; conditions: LOXIMVI (Melanoma), 10^−4 molar
Procedure, shortened: as §1

[20] = system: M14; assay: NCI screen, growth of human tumor cells: Melanoma M14; conditions: M14 (Melanoma), 10^−4 molar
Procedure, shortened: as §1

[21] = system: SK-MEL-28; assay: NCI screen, growth of human tumor cells: Melanoma SK-MEL-28; conditions: SK-MEL-28 (Melanoma), 10^−4 molar
Procedure, shortened: as §1

[22] = system: SK-MEL-5; assay: NCI screen, growth of human tumor cells: Melanoma SK-MEL-5; conditions: SK-MEL-5 (Melanoma), 10^−4 molar
Procedure, shortened: as §1

[23] = system: UACC-257; assay: NCI screen, growth of human tumor cells: Melanoma UACC-257; conditions: UACC-257 (Melanoma), 10^−4 molar
Procedure, shortened: as §1

[24] = system: UACC-62; assay: NCI screen, growth of human tumor cells: Melanoma UACC-62; conditions: UACC-62 (Melanoma), 10^−4 molar
Procedure, shortened: as §1

[25] = system: IGROVI; assay: NCI screen, growth of human tumor cells: Ovarian Cancer IGROVI; conditions: IGROVI (Ovarian Cancer), 10^−4 molar
Procedure, shortened: as §1

[26] = system: OVCAR-3; assay: NCI screen, growth of human tumor cells: Ovarian Cancer OVCAR-3; conditions: OVCAR-3 (Ovarian Cancer), 10^−4 molar
Procedure, shortened: as §1

[27] = system: OVCAR-4; assay: NCI screen, growth of human tumor cells: Ovarian Cancer OVCAR-4; conditions: OVCAR-4, 10^−4 molar
Procedure, shortened: as §1

[28] = system: OVCAR-5; assay: NCI screen, growth of human tumor cells: Ovarian Cancer OVCAR-5; conditions: OVCAR-5 (Ovarian Cancer), 10^−4 molar
Procedure, shortened: as §1

[29] = system: OVCAR-8; assay: NCI screen, growth of human tumor cells: Ovarian Cancer OVCAR-8; conditions: OVCAR-8 (Ovarian Cancer), 10^−4 molar
Method: as §2

[30] = system: 786-0; assay: NCI screen, growth of human tumor cells: Renal Cancer 786-0; conditions: 786-0 (Renal Cancer), 10^−4 molar
Procedure, shortened: as §1

[31] = system: ACHN; assay: NCI screen, growth of human tumor cells: Renal Cancer ACHN; conditions: ACHN (Renal Cancer), 10^−4 molar
Procedure, shortened: as §1

[32] = system: RXF-393; assay: NCI screen, growth of human tumor cells: Renal Cancer RXF-393; conditions: RXF-393 (Renal Cancer), 10^−4 molar
Procedure, shortened: as §1

[33] = system: SN12C; assay: NCI screen, growth of human tumor cells: Renal Cancer SN12C; conditions: SN12C (Renal Cancer), 10^−4 molar
Procedure, shortened: as §1

[34] = system: CAKI-1; assay: NCI screen, growth of human tumor cells: Renal Cancer CAKI-1; conditions: CAKI-1 (Renal Cancer), 10^−4 molar
Procedure, shortened: as §1

[35] = system: DU-145; assay: NCI screen, growth of human tumor cells: Prostate Cancer DU-145; conditions: DU-145 (Prostate Cancer), 10^−4 molar
Procedure, shortened: as §1

[36] = system: MCF 7; assay: NCI screen, growth of human tumor cells: Breast Cancer MCF 7; conditions: MCF 7 (Breast Cancer), 10^−4 molar
Procedure, shortened: as §1

[37] = system: MCF7/ADR-RES; assay: NCI screen, growth of human tumor cells: Breast Cancer MCF7/ADR-RES; conditions: MCF7/ADR-RES (Breast Cancer), 10^−4 molar
Procedure, shortened: as §1

[38] = system: BT-549; assay: NCI screen, growth of human tumor cells: Breast Cancer BT-549; conditions: BT-549 (Breast Cancer), 10^−4 molar
Procedure, shortened: as §1

[39] = system: HS 578T; assay: NCI screen, growth of human tumor cells: Breast Cancer HS 578T; conditions: HS 578T (Breast Cancer), 10^−4 molar
Procedure, shortened: as §1

[40] = system: MDA-MB-231/ATCC; assay: NCI screen, growth of human tumor cells: Breast Cancer MDA-MB-231/ATCC; conditions: MDA-MB-231/ATCC (Breast Cancer), 10^−4 molar
Method: as §2

[41] = system: MDA-MB-435; assay: NCI screen, growth of human tumor cells: Breast Cancer MDA-MB-435; conditions: MDA-MB-435 (Breast Cancer), 10^−4 molar
Procedure, shortened: as §1

[42] = system: MDA-N; assay: NCI screen, growth of human tumor cells: Breast Cancer MDA-N; conditions: 10^−4 molar
Method: as §2

[43] = system: human cancer cells; assay: NCI screen summary over the cancers tested (negative growth of human cancer cells); conditions: 10^−4 M conc.; cancers with negative growth / cancers tested
Method: as §2
The derivatives in the tables are grouped using the same category as in the tables 1-6.

CCOCC1(COCC)S(=O)(=O)OCCOS1(=O)=O [NSC 698120]
percent of growth of human tumor cells [1]: 23%
percent of growth of human tumor cells [2]: 10%
% Growth [3]: −99%
percent of growth of human tumor cells [4]: 23%
percent of growth of human tumor cells [5]: 0%
% Growth [6]: −83%
percent of growth of human tumor cells [7]: −38%
percent of growth of human tumor cells [8]: 20%
% Growth [9]: −72%
% Growth [10]: −92%
percent of growth of human tumor cells [11]: −6%
percent of growth of human tumor cells [12]: −27%
percent of growth of human tumor cells [13]: −3%
percent of growth of human tumor cells [14]: −3%
percent of growth of human tumor cells [15]: 21%
percent of growth of human tumor cells [16]: 14%
percent of growth of human tumor cells [17]: 20%
percent of growth of human tumor cells [18]: −47%
percent of growth of human tumor cells [19]: −25%
percent of growth of human tumor cells [20]: −36%
percent of growth of human tumor cells [21]: 12%
percent of growth of human tumor cells [22]: 25%
percent of growth of human tumor cells [23]: −14%
percent of growth of human tumor cells [24]: −36%
percent of growth of human tumor cells [25]: −28%
percent of growth of human tumor cells [26]: −13%
% Growth [27]: −88%
percent of growth of human tumor cells [28]: −28%
percent of growth of human tumor cells [29]: −43%
percent of growth of human tumor cells [30]: 15%
percent of growth of human tumor cells [31]: 18%
percent of growth of human tumor cells [32]: −36%
percent of growth of human tumor cells [33]: 24%
percent of growth of human tumor cells [34]: 7%
percent of growth of human tumor cells [35]: 24%
percent of growth of human tumor cells [36]: 27%
percent of growth of human tumor cells [37]: −26%
percent of growth of human tumor cells [38]: −4%
percent of growth of human tumor cells [39]: 15%
percent of growth of human tumor cells [40]: 18%
percent of growth of human tumor cells [41]: 1%
percent of growth of human tumor cells [42]: 3%
Percentage of cancers showing negative growth cancers tested [43]: 10^−4 M conc. = 22/42 = 52%
